# Experiments:
# [1] = tested on: methane-producing bacteria; details: 80 mg/kg; paddy fields during rice cultivation; cited from earlier work
# [2] = tested on: paddy field soil microorganisms; test: Test Example 3: comparative test of methane-production inhibition with existing inhibitor BES in flooded paddy field soil (headspace GC); format: cell-based; details: 0.5 mg/kg dry soil; for Methane-production amount (mg/L) 21 days after treatment: 21 days static incubation at 30° C., untreated plot 69.3; for Methane-production amount (mg/L) 28 days after treatment: 28 days static incubation at 30° C., untreated plot 119.2
# Method: In a glass vial (21.5 mL volume) for headspace analysis, 4.0 g of paddy field soil (provisional specific gravity 1.18 g/cm^3) was weighed, and 8 mL of distilled water was added. In this flooded soil, a plot to which 20 μL of acetone solution containing 100 ppm of Compound I-1 was added (0.5 mg/kg dry soil (equivalent to 590 g/ha)) is provided as Example 10, a plot to which 20 μL of an aqueous solution containing 100 ppm of BES (a comparative compound) and acetone was added (0.5 mg/kg dry soil) is provided as Comparative Example 3, and an untreated plot to which 20 μL of acetone was added is provided as Comparative Example 4. After 100 μL of a culture solution of paddy field soil microorganisms was added to these glass vials, the vials were tightly sealed using septum and aluminum caps, and allowed to stand at 30° C. for static incubation. After 21 and 28 days of incubation treatment, 0.5 mL of gas was collected from a headspace in a glass vial sample using a gas tight syringe and analyzed for methane production by gas chromatography (GC). The comparative compound, BES (CAS No.: 4263-52-9; 2-Bromoethanesulfonate), is an existing methane-production inhibitor and a product manufactured by Tokyo Chemical Industry Co., Ltd.
# dairy cattle = details: feed treated with from 40 to 80 mg/kg; cited from earlier work
# [3] = tested on: paddy field soil microorganisms; test: Test Example 1: methane-production inhibition test by Compound I-1 in flooded paddy field soil (headspace GC); format: cell-based; details: for Methane-production amount (mg/L) 21 days after treatment: 21 days static incubation at 30° C., untreated plot 34.0; for Methane-production amount (mg/L) 28 days after treatment: 28 days static incubation at 30° C., untreated plot 38.9
# Method: In a glass vial (21.5 mL volume) for headspace analysis, 4.0 g of paddy field soil (provisional specific gravity 1.18 g/cm^3) was weighed, and 8 mL of distilled water was added. In this flooded soil, a plot to which 40 μL of 10 ppm Compound I-1-containing acetone solution was added (0.1 mg/kg dry soil (equivalent to 118 g/ha)) was provided as Example 1, and a plot to which 20 μL of 100 ppm Compound I-1-containing acetone solution was added (0.5 mg/kg dry soil (equivalent to 590 g/ha)) and a plot to which 40 μL of 100 ppm Compound I-1-containing acetone solution was added (1 mg/kg dry soil (equivalent to 1180 g/ha)) were provided as Examples 2 and 3. As Comparative Example 1, an untreated plot to which 40 μL of acetone was added was provided. After 100 μL of a culture solution of paddy field soil microorganisms was added to these glass vials, the vials were tightly sealed using septum and aluminum caps, and allowed to stand at 30° C. for static incubation. After 21 and 28 days of incubation treatment, 0.5 mL of gas was collected from a headspace in a glass vial sample using a gas tight syringe and analyzed for methane production by gas chromatography (GC). The amount treatment (g) per 1 ha was converted according to the OECD Guideline Test No. 307 issued in 2002, based on the provisional specific gravity of the paddy field soil used.
# [4] = tested on: paddy field soil microorganisms; test: Test Example 2: methane-production inhibition test by various methane-production inhibitors in flooded paddy field soil (headspace GC); format: cell-based; details: for Methane-production amount compared to untreated plot: 0.5 mg/kg dry soil treatment; for Methane-production amount (mg/L) 21 days after treatment / Methane-production amount (mg/L) 28 days after treatment: 0.5 mg/kg dry soil; for Methane-production amount (mg/L) 21 days after treatment: 21 days static incubation at 30° C., untreated plot 19.6; for Methane-production amount (mg/L) 28 days after treatment: 28 days static incubation at 30° C., untreated plot 44.3
# Method: In a glass vial (21.5 mL volume) for headspace analysis, 4.0 g of paddy field soil (provisional specific gravity 1.18 g/cm^3) was weighed, and 8 mL of distilled water was added. In this flooded soil, plots to which 40 μL of acetone solution containing 50 ppm of the compounds listed in Table 2 below were added (0.5 mg/kg dry soil (equivalent to 590 g/ha)), respectively, were provided as Examples 4 to 9. As Comparative Example 2, an untreated plot to which 40 μL of acetone was added was provided. After 100 μL of a culture solution of paddy field soil microorganisms was added to these glass vials, the vials were tightly sealed using septum and aluminum caps, and allowed to stand at 30° C. for static incubation. After 21 and 28 days of incubation treatment, 0.5 mL of gas was collected from a headspace in a glass vial sample using a gas tight syringe and analyzed for methane production by gas chromatography (GC).
smiles,measurement,setting,value
"O=S(=O)([O-])CCBr.[Na+] [BES, 2-Bromoethanesulfonate, reference compound]",Reduction of methane emissions compared to a control area,[1],49%
same,Methane-production amount compared to untreated plot,[2],reduced
same,Methane-production amount (mg/L) 21 days after treatment,[2],32.9 mg/L
same,Methane-production amount (mg/L) 28 days after treatment,[2],80.5 mg/L
"O=[N+]([O-])OCCCO [Compound 3-NOP, 3-nitrooxypropanol]",Reduction of methane emissions from dairy cattle,dairy cattle,30%
O=C(Oc1ccc(OS(=O)(=O)CCl)cc1)c1ccccc1 [Compound I-1],Methane-production amount compared to untreated plot,[3]; 0.1 mg/kg dry soil (Example 1),reduced
same,Methane-production amount (mg/L) 21 days after treatment,[3]; 0.1 mg/kg dry soil,9.1 mg/L
same,Methane-production amount (mg/L) 28 days after treatment,[3]; 0.1 mg/kg dry soil,21.3 mg/L
same,Methane-production reduction effect compared to untreated plot,[3]; 0.5 mg/kg dry soil and above (Examples 2 and 3),higher reduction effect
same,Methane-production amount (mg/L) 21 days after treatment,[3]; 0.5 mg/kg dry soil,2.8 mg/L
same,Methane-production amount (mg/L) 28 days after treatment,[3]; 0.5 mg/kg dry soil,3.7 mg/L
same,Methane-production amount (mg/L) 21 days after treatment,[3]; 1 mg/kg dry soil,2.5 mg/L
same,Methane-production amount (mg/L) 28 days after treatment,[3]; 1 mg/kg dry soil,3.1 mg/L
same,Methane reduction amount relative to the reduction amount due to the comparative compound,[2],significantly greater
same,Methane-production amount compared to untreated plot,[2],reduced
same,Methane-production amount (mg/L) 21 days after treatment,[2],13.4 mg/L
same,Methane-production amount (mg/L) 28 days after treatment,[2],34.2 mg/L
same,Methane-production amount compared to untreated plot,[4],particularly high reduction effect
same,Methane-production amount (mg/L) 21 days after treatment,[4],2.5 mg/L
same,Methane-production amount (mg/L) 28 days after treatment,[4],3.8 mg/L
O=S(=O)(CCl)Oc1ccc(O)cc1 [Compound I-2],Methane-production amount compared to untreated plot,[4],particularly high reduction effect
same,Methane-production amount (mg/L) 21 days after treatment,[4],2.5 mg/L
same,Methane-production amount (mg/L) 28 days after treatment,[4],4.4 mg/L
O=S(=O)(CCl)c1ccc(Br)cc1 [Compound I-3],Methane-production amount (mg/L) 21 days after treatment,[4],5.3 mg/L
same,Methane-production amount (mg/L) 28 days after treatment,[4],14.7 mg/L
O=S(=O)(CCl)c1ccc(O)cc1 [Compound I-4],Methane-production amount (mg/L) 21 days after treatment,[4],5.4 mg/L
same,Methane-production amount (mg/L) 28 days after treatment,[4],16.7 mg/L
O=S(=O)(CO)c1ccc(Br)cc1 [Compound I-5],Methane-production amount (mg/L) 21 days after treatment,[4],15.7 mg/L
same,Methane-production amount (mg/L) 28 days after treatment,[4],24.3 mg/L
CS(=O)(=O)Oc1ccc(O)cc1 [Compound I-6],Methane-production amount (mg/L) 21 days after treatment,[4],16.7 mg/L
same,Methane-production amount (mg/L) 28 days after treatment,[4],28.3 mg/L

# — patent US11795145B2, “Methane-production inhibitor composition and method for inhibiting methane production” (KUMIAI CHEMICAL INDUSTRY CO., LTD., priority 2020, dated 2023)
